{"source": "patent US20230011168A1", "about": "“Bio-Chips and Production Method Thereof” (China Medical University, priority 2021, published 2023)", "format_in_all_cases": "cell-based", "key": {"[1]": {"test_system": "GR10 lung cancer cells", "test": "Cancer cell survival test of target drugs, GR10"}, "[2]": {"test_system": "CCC cervical cancer cells", "test": "Biochip drug efficacy test on CCC cervical cancer cells", "settings": "compared with 5-Fu and Lipodox", "text": "(§1) The biochip 10 can be first served as a simulation model of a drug screening for cancer. This embodiment is an example of a drug screening for candidate drugs for cervical cancer taking from a target patient. It is worth mentioning that the biochip 10 provided by the present invention, the simulated vascular channel 12 in the preferred embodiment can be used for simulating an in-vivo environment of cervical cancer or breast cancer which these cancer cells are normally metabolized from the blood vessel in real human body. However, by switching the simulated vascular channel 12 into a gas or air flow channel (simulation of human trachea), it can be used as a simulation for lung cancer as another suitable applications for the present invention.\n(§2) In this embodiment, when producing the simulated vascular channel 12, the fluid containing endothelial cells will be fluxed for completely adhering, attaching and even starting to be cultured to the inner surface of the simulated vascular channel 12 at 37° C. for one day. Further, the peristaltic pump is connected to circulate as a biosystem. For a single simulated vascular channel 12, it is preferred to have a perfusion rate as 13 μL/min. […]\n(§3) With reference to FIGS. 8A to 8C, in this embodiment, three different cervical cancer cells are used to perform quantitative and qualitative tests of the efficacy of different cancer therapeutic drugs."}, "[3]": {"test_system": "SiHa cervical cancer cells", "test": "Biochip drug efficacy test on SiHa cervical cancer cells", "settings": "compared with 5-Fu and Lipodox", "text": "as §1, §2, §3"}, "[4]": {"test_system": "breast cancer cells", "test": "Cell viability of breast cancer cells in biochip", "settings": "for live cancer cells (cell viability, FIG. 14): after culturing for 3 days, high concentrations", "text": "FIG. 14 is a validation test of cell viability of breast cancer cells treating by couples of cancer therapeutic drugs. […] By such, the present invention can be used to determine which cancer treatment drugs are effective for the patient.\nFIG. 15 is an immunohistochemistry corresponded to the test result of Taxol drug in FIG. 14."}, "[5]": {"test_system": "Hela cervical cancer cells", "test": "Biochip drug efficacy test on Hela cervical cancer cells", "text": "as §1, §2\nWith reference to FIGS. 8A to 8C, in this embodiment, three different cervical cancer cells are used to perform quantitative and qualitative tests of the efficacy of different cancer therapeutic drugs. […]"}, "[6]": {"test_system": "lung cancer cells", "test": "Cytotoxicity test on lung cancer cells in biochip, static vs dynamic perfusion", "text": "With reference to FIGS. 12A and 12B, cytotoxicity tests with 5-Fu cancer cell therapeutic drug are presented."}}}
{"smiles": "C#Cc1cccc(Nc2ncnc3cc(OCCOC)c(OCCOC)cc23)c1", "note": "[Erlotinib]", "values": [{"measurement": "effect on cancer cell survival (FIG. 13B)", "setting": "[1]", "value": "drug resistance"}]}
{"smiles": "CC(=O)O[C@H]1C(=O)[C@@]2(C)[C@H]([C@H](OC(=O)c3ccccc3)[C@]3(O)C[C@H](OC(=O)[C@H](O)[C@@H](NC(=O)c4ccccc4)c4ccccc4)C(C)=C1C3(C)C)[C@]1(OC(C)=O)CO[C@@H]1C[C@@H]2O", "note": "[Taxol]", "values": [{"measurement": "cancer cell poisoning effect (bar diagrams, FIG. 8C)", "setting": "[2]", "value": "better cancer cell poisoning effect among other two drugs"}, {"measurement": "cancer cell poisoning effect (bar diagrams, FIG. 8B)", "setting": "[3]", "value": "better cancer cell poisoning effect among other two drugs"}, {"measurement": "dead cancer cells (immunohistochemistry, FIG. 15)", "setting": "[4]", "value": "more and more dead cancer cells are shown"}, {"measurement": "live cancer cells (cell viability, FIG. 14)", "setting": "[4]", "value": "significantly reducing live cancer cells"}, {"measurement": "cancer cell killing effect (immunohistochemistry, apoptotic cells)", "setting": "[5]; 7th day", "value": "significant cancer cell killing effect"}, {"measurement": "cancer cell poisoning effect (bar diagrams, FIG. 8A)", "setting": "[5]; compared with 5-Fu and Lipodox", "value": "better cancer cell poisoning effect among other two drugs"}]}
{"smiles": "Nc1ccn([C@@H]2O[C@H](CO)[C@@H](O)C2(F)F)c(=O)n1", "note": "[Gemcitabine]", "values": [{"measurement": "live cancer cells (cell viability, FIG. 14)", "setting": "[4]", "value": "significantly reducing live cancer cells"}]}
{"smiles": "COc1cc2ncnc(Nc3ccc(F)c(Cl)c3)c2cc1OCCCN1CCOCC1", "note": "[Gefitinib]", "values": [{"measurement": "effect on cancer cell survival (FIG. 13B)", "setting": "[1]", "value": "drug resistance"}]}
{"smiles": "O=c1[nH]cc(F)c(=O)[nH]1", "note": "[5-Fu]", "values": [{"measurement": "cytotoxicity (FIG. 12A)", "setting": "[6]; dynamic perfusion compared with static culture", "value": "cytotoxicity of dynamic perfusion is more remarkable"}, {"measurement": "dead cancer cells (immunohistochemistry, FIG. 12B)", "setting": "[6]; high dose, dynamic culture of perfusion", "value": "dead cancer cells are increased"}]}
{"smiles": "Nc1nc2[nH]cc(CCc3ccc(C(=O)N[C@@H](CCC(=O)O)C(=O)O)cc3)c2c(=O)[nH]1", "note": "[Pemetrexed]", "values": [{"measurement": "reaction compared with the other drugs (FIG. 14)", "setting": "[4]; Taxol, Cisplatin, Gemcitabine vs Pemetrexed", "value": "These three drugs show better reaction than Pemetrexed"}]}
{"smiles": "N.N.[Cl][Pt][Cl]", "note": "[Cisplatin]", "values": [{"measurement": "live cancer cells (cell viability, FIG. 14)", "setting": "[4]", "value": "significantly reducing live cancer cells"}]}
